Measured values taken from patent US7781454B2 (priority 2006, dated 2010).
Where a name gives a salt, the structure may show the parent alone. Read-outs that look alike come from different tables or passages of the source.

Key:
[1] = test system: HIV strain containing the K103N mutation; assay: Spread assay: inhibition of HIV replication (K103N mutant strain); assay type: cell-based; conditions: Human immunodeficiency virus 1, read-out: Spread (K103N) CIC95
Description: (§1) Assays for the inhibition of acute HIV-1 infection of T-lymphoid cells (alternatively referred to herein as the “spread assay”) were conducted in accordance with Vacca, J. P. et al., Proc. Natl. Acad. Sci. USA 1994, 91: 4096. The assays tested for inhibition of wild type HIV-1 and of HIV strains containing the Y181C or K103N mutation. […] The compounds of Examples 1 to 4 had CIC95 values of less than 10 micromolar in the assay employing the K103N mutant strain. […] Table C also reports the CIC95 values of the compounds of Examples 1-7, 9-13 and 15-29 obtained in the assays employing the Y181C mutant strain and the K103N mutant strain.

[2] = test system: HIV strain containing the Y181C mutation; assay: Spread assay: inhibition of HIV replication (Y181C mutant strain); assay type: cell-based; conditions: Human immunodeficiency virus 1, read-out: Spread (Y181C) CIC95
Description: as §1

[3] = biological target: T1, mutant HIV reverse transcriptase (Y181C mutation) (Human immunodeficiency virus type 1 group M subtype B, UniProt P04585, Y768C); assay: ECL assay for inhibition of mutant HIV reverse transcriptase (Y181C); assay type: biochemical
T1 construct: against mutant HIV reverse transcriptase; made in house
Description: (§2) 100 μL reaction mixtures were initiated with a combination of primer-template substrate ([…]) and dNTPs (0.6 μM dNTPs, 1.25 μM BrdUTP). The heterodimeric nucleic acid substrate was generated by annealing the DNA primer pD500 (described in Shaw-Reid et al., J. Biol. Chem., 278: 2777-2780; obtained from Integrated DNA Technologies) to t500, a 500 nucleotide RNA template created by in vitro transcription (see Shaw-Reid et al., J. Biol. Chem., 278: 2777-2780). After 1 hour incubation at 37° C., reactions were quenched by 10 μL of 1 N NaOH. Microtiter plates were incubated for an additional 30 minutes at room temperature and then neutralized with 10 μL of 1 N HCl. A mixture of detection buffer containing ruthenylated anti-BrdU antibody and streptavidin coated magnetic beads were added to the plate and incubated at room temperature for 1.5 hours prior to quantification via electrochemiluminescence instrument.
(§3) Analogous assays were conducted substituting mutant HIV strains to determine the in vitro inhibition of compounds of the present invention against mutant HIV reverse transcriptase. In one strain the reverse transcriptase has the Y181C mutation and in the other strain the reverse transcriptase has the K103N mutation. The mutations were generated with the QUIKCHANGE site-directed mutagenesis kit (Stratagene).

wild type HIV-1 = assay: Spread assay: inhibition of acute HIV-1 infection of T-lymphoid cells (WT); assay type: cell-based; conditions: Human immunodeficiency virus 1, T-lymphoid; wild-type strain; 10% FBS; read-out: Spread (WT) CIC95
Description: as §1

[4] = biological target: HIV-1 RT enzyme (wild-type) (Human immunodeficiency virus type 1 group M subtype B, UniProt P04585); assay: ECL assay for inhibition of HIV reverse transcriptase (WT); assay type: biochemical
Description: as §2

[5] = biological target: T2, mutant HIV reverse transcriptase (K103N mutation) (Human immunodeficiency virus type 1 group M subtype B, UniProt P04585, K690N); assay: ECL assay for inhibition of mutant HIV reverse transcriptase (K103N); assay type: biochemical
T2 construct: against mutant HIV reverse transcriptase; made in house
Description: as §2, §3

[6] = Y181C mutant RT, read-out: ECL Assay (Y181C) IC50
[7] = K103N mutant RT, read-out: ECL Assay (K103N) IC50

SMILES	IC95 [1]	IC95 [2]	IC50 [3, 6]	IC95 (wild type HIV-1)	IC50 [4]	IC50 [5, 7]	IC50 [3]	IC50 [5]
N#Cc1cc(Cl)cc(Oc2c(Cl)ccc3c2cnn3Cc2n[nH]c3ncccc23)c1 [Example 1, 3-Chloro-5-{[5-chloro-1-(1H-pyrazolo[3,4-b]pyridin-3-ylmethyl)-1H-indazol-4-yl]oxy}benzonitrile]	17 nM	69 nM	0.6 nM	13 nM	0.35 nM	0.57 nM	–	–
N#Cc1cc(Cl)cc(Oc2c(Cl)ccc3c2c(Cl)nn3Cc2n[nH]c3ncccc23)c1 [Example 2, 3-Chloro-5-{[3,5-dichloro-1-(1H-pyrazolo[3,4-b]pyridin-3-ylmethyl)-1H-indazol-4-yl]oxy}benzonitrile]	2090 nM	–	25 nM	521 nM	3.9 nM	12 nM	–	–
N#Cc1cc(Cl)cc(Oc2c(Cl)ccc3c2cnn3Cc2n[nH]c3nc(N)ccc23)c1 [Example 3, 3-{[5-Chloro-4-(3-chloro-5-cyanophenoxy)-1H-indazol-1-yl]methyl}-1H-pyrazolo[3,4-b]pyridin-6-aminium chloride]	23 nM	77 nM	1.9 nM	9 nM	0.6 nM	1.7 nM	–	–
N#Cc1cc(Cl)cc(Oc2c(Cl)ccc3c2nnn3Cc2n[nH]c3ncccc23)c1 [Example 4, 3-chloro-5-{[5-chloro-1-(1H-pyrazolo[3,4-b]pyridin-3-ylmethyl)-1H-1,2,3-benzotriazol-4-yl]oxy}benzonitrile]	5 nM	24 nM	0.44 nM	4 nM	0.24 nM	0.41 nM	–	–
N#Cc1cc(Cl)cc(Oc2c(Cl)ccc3c2cnn3Cc2n[nH]c3c2ccc[n+]3[O-])c1 [Example 5, 3-chloro-5-({5-chloro-1-[(7-oxido-1H-pyrazolo[3,4-b]pyridin-3-yl)methyl]-1H-indazol-4-yl}oxy)benzonitrile]	23 nM	105 nM	1.8 nM	11 nM	0.62 nM	1.3 nM	–	–
CN(Cc1ccccc1Cl)C(=O)Cn1nnc2c(Oc3cc(Cl)cc(C#N)c3)c(Cl)ccc21 [Example 9, N-(2-chlorobenzyl)-2-[5-chloro-4-(3-chloro-5-cyanophenoxy)-1H-1,2,3-benzotriazol-1-yl]-N-methylacetamide]	807 nM	–	137 nM	770 nM	61 nM	74 nM	–	–
N#Cc1cc(Cl)cc(Oc2c(Cl)ccc3c2nnn3CC(=O)c2cccnc2)c1 [Example 11, 3-chloro-5-{[5-chloro-1-(2-oxo-2-pyridin-3-ylethyl)-1H-1,2,3-benzotriazol-4-yl]oxy}benzonitrile]	433 nM	–	30 nM	381 nM	18 nM	52 nM	–	–
N#Cc1cc(Cl)cc(Oc2c(Cl)ccc3c2nnn3CC(=O)OCc2ccccc2)c1 [Example 15]	> 833 nM	–	1.5 nM	> 833 nM	2.4 nM	12 nM	–	–
N#Cc1cc(Cl)cc(Oc2c(Cl)ccc3c2nnn3CC(=O)N2CCCC(C(N)=O)C2)c1 (centres unmarked) [Example 16, 1-{[5-chloro-4-(3-chloro-5-cyanophenoxy)-1H-1,2,3-benzotriazol-1-yl]acetyl}piperidine-3-carboxamide]	> 833 nM	–	790 nM	> 833 nM	1100 nM	> 1800 nM	–	–
N#Cc1cc(Cl)cc(Oc2c(Cl)ccc3nn(Cc4n[nH]c5ncccc45)nc23)c1Cl [Example 20, 2,5-dichloro-3-{[5-chloro-2-(1H-pyrazolo[3,4-b]pyridin-3-ylmethyl)-2H-1,2,3-benzotriazol-4-yl]oxy}benzonitrile]	> 833 nM	–	2.5 nM	420 nM	2.1 nM	55 nM	–	–
NCc1cc(Cl)cc(Oc2c(Cl)ccc3c2nnn3Cc2n[nH]c3ncccc23)c1Cl [Example 21, 1-(2,5-dichloro-3-{[5-chloro-1-(1H-pyrazolo[3,4-b]pyridin-3-ylmethyl)-1H-1,2,3-benzotriazol-4-yl]oxy}phenyl)methanamine]	192 nM	417 nM	–	58 nM	–	4.2 nM	–	–
N#Cc1cc(Cl)cc(Oc2c(Cl)ccc3c2nnn3Cc2n[nH]c3nc(N)ccc23)c1Cl [Example 22, 3-({1-[(6-amino-1H-pyrazolo[3,4-b]pyridin-3-yl)methyl]-5-chloro-1H-1,2,3-benzotriazol-4-yl}oxy)-2,5-dichlorobenzonitrile]	9 nM	–	0.79 nM	4 nM	0.52 nM	0.8 nM	–	–
N#Cc1cc(Cl)cc(Oc2c(Cl)ccc3c2nnn3Cc2nnc(-c3ccccc3)o2)c1 [Example 23, 3-chloro-5-({5-chloro-1-[(5-phenyl-1,3,4-oxadiazol-2-yl)methyl]-1H-1,2,3-benzotriazol-4-yl}oxy)benzonitrile]	> 833 nM	–	3.4 nM	96 nM	6.1 nM	10 nM	–	–
N#Cc1cc(Cl)cc(Oc2c(Cl)ccc3nn(Cc4nnc(-c5ccccc5)o4)nc23)c1 [Example 24, 3-chloro-5-({5-chloro-2-[(5-phenyl-1,3,4-oxadiazol-2-yl)methyl]-2H-1,2,3-benzotriazol-4-yl}oxy)benzonitrile]	> 833 nM	–	47 nM	> 833 nM	46 nM	150 nM	–	–
Cc1ccn2c(Cc3n[nH]c4ncccc34)ncc2c1Oc1cc(Cl)cc(C#N)c1 [Example 25, 3-chloro-5-{[7-methyl-3-(1H-pyrazolo[3,4-b]pyridin-3-ylmethyl)imidazo[1,5-a]pyridin-8-yl]oxy}benzonitrile trifluoroacetate]	362 nM	–	–	115 nM	20 nM	–	33 nM	37 nM
Cc1ccn2c(Cc3n[nH]c4ncccc34)nnc2c1Oc1cc(Cl)cc(C#N)c1 [Example 26, 3-chloro-5-{[7-methyl-3-(1H-pyrazolo[3,4-b]pyridin-3-ylmethyl)[1,2,4]triazolo[4,3-a]pyridin-8-yl]oxy}benzonitrile trifluoroacetate]	> 833 nM	–	–	> 833 nM	220 nM	–	1200 nM	820 nM
N#Cc1cc(Cl)cc(Oc2c(Cl)ccc3c2CCCN3Cc2n[nH]c3ncccc23)c1 [Example 27, 3-chloro-5-{[6-chloro-1-(1H-pyrazolo[3,4-b]pyridine-3-ylmethyl)-1,2,3,4-tetrahydroquinolin-5-yl]oxy}benzonitrile]	7730 nM	–	160 nM	3280 nM	160 nM	640 nM	–	–
N#Cc1cc(Cl)cc(Oc2c(Cl)ccc3c2nnn3CCO)c1 [Example 28, 3-chloro-5-{[5-chloro-1-(2-hydroxyethyl)-1H-1,2,3-benzotriazol-4-yl]oxy}benzonitrile]	> 833 nM	–	77 nM	557 nM	68 nM	210 nM	–	–
N#Cc1cc(C#N)cc(Oc2c(Cl)ccc3c2nnn3Cc2n[nH]c3ncccc23)c1 [Example 29, 5-{[5-chloro-1-(1H-pyrazolo[3,4-b]pyridin-3-ylmethyl)-1H-1,2,3-benzotriazol-4-yl]oxy}isophthalonitrile]	3.1 nM	–	1.3 nM	2.5 nM	0.9 nM	1.4 nM	–	–
